In ChEMBL document CHEMBL1151087, “N-sulfonyl derivatives of 6,7-dichloro 3,4-dihydro-3-oxo-quinoxalinecarboxylate as glycine-site NMDA and AMPA antagonists” (Bioorg Med Chem Lett, 1993):
pIC50: −log10 of the molar value.

What was measured:
[1] = biological target: Glutamate [NMDA] receptor; assay: Tested for the affinity to the glycine site -NMDA receptor using [3H]Gly as radioligand.; format: protein-complex assay
[2] = biological target: Glutamate receptor ionotropic AMPA (Homo sapiens, UniProt P42261+P42262+P42263+P48058)
Description: Tested for the affinity to the Ionotropic glutamate receptor AMPA using [3H]-AMPA as radioligand

Rattus norvegicus = species on record: Rattus norvegicus; assay: Tested for the ability to suppress the spontaneous epileptiform discharge rate in a cortical wedge model; format: functional, organism-based
[3] = Partition coefficient was measured using a shake flask method with octanol/buffer at physiological pH; format: physicochemical

Row | SMILES | pIC50 [1] | pIC50 [2] | pIC50 (Rattus norvegicus) | logD [3]
1 | O=C(O)c1cc(O)c2c(Cl)cc(Cl)cc2n1 | 7.17 | < 4.00 | 5.30 | -0.56
2 | NS(=O)(=O)c1cccc2c1c([N+](=O)[O-])cc1nc(O)c(O)nc12 [NBQX] | < 4.00 | – | – | –
3 | O=c1[nH]c2cc([N+](=O)[O-])c([N+](=O)[O-])cc2[nH]c1=O [DNQX] | 6.08 | 6.70 | – | 0.09

Second part, the compound after the results:

Row | pIC50 [1] | pIC50 [2] | pIC50 (Rattus norvegicus) | logD [3] | SMILES
4 | 6.92 | 5.37 | 4.96 | 0.15 | O=C(NS(=O)(=O)c1ccccc1)c1nc2cc(Cl)c(Cl)cc2[nH]c1=O
5 | 6.44 | 4.85 | 4.96 | -1.1 | CS(=O)(=O)NC(=O)c1nc2cc(Cl)c(Cl)cc2nc1O
6 | 6.34 | 5.17 | – | -1 | O=C(O)c1nc2cc(Cl)c(Cl)cc2nc1O [6,7-DICHLORO-3-HYDROXY-2-QUINOXALINECARBOXYLIC ACID]
